In one assay the target is T1, THR beta-LBD (Homo sapiens, UniProt P10828).
T1 construct: THR alpha-LBD (0.4 nM final concentration) or THR beta-LBD (1.0 nM final concentration) was added; purchased ThermoFisher
T1 sequence (P10828 217-461 limits assumed): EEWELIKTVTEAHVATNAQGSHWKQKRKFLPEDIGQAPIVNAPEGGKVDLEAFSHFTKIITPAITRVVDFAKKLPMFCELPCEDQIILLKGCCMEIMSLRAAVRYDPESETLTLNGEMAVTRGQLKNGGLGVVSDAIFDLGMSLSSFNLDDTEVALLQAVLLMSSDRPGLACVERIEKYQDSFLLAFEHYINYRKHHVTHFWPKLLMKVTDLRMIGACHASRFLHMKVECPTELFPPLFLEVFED
Nature of the assay: LanthaScreen TR-FRET Thyroid Receptor beta Coactivator Assay. The assay is classed as biochemical. The settings on record: for THRβ-Selectivity: THR beta over THR alpha, derived from T3-selectivity normalized data; for EC50: TR-FRET coactivator assay, 2 hours incubation at room temperature, run in duplicate multiple times, average data, read-out: EC50 THRβ-FRET. How it is done: LanthaScreen™ TR-FRET Thyroid Receptor alpha Coactivator Assay kit (ThermoFisher) and LanthaScreen™ TR-FRET Thyroid Receptor beta Coactivator Assay kit (ThermoFisher) were used for agonist compound screening. […] Buffer C (ThermoFisher) was added to each well before the 4× mixture of fluorescein-SCR2-2 coactivator (200 nM final concentration), Terbium-labeled anti-GST antibody (2 nM final concentration), and THR alpha-LBD (0.4 nM final concentration) or THR beta-LBD (1.0 nM final concentration) was added.
In general terms: TR-FRET usually uses a lanthanide donor and a delayed reading to cut background.

The target in a further assay is T2, THR alpha-LBD (Homo sapiens, UniProt P10827).
T2 construct: THR alpha-LBD (0.4 nM final concentration) or THR beta-LBD (1.0 nM final concentration) was added; purchased ThermoFisher
Nature of the assay: LanthaScreen TR-FRET Thyroid Receptor alpha Coactivator Assay. In kind it is biochemical. Particulars: 2 hours incubation at room temperature, run in duplicate multiple times, average data, read-out: EC50 THRα-FRET. The protocol: Example B1: Time-Resolved Fluorescence Resonance Energy Transfer (TR-FRET) Assay for Thyroid Hormone Receptor Agonist Screening
LanthaScreen™ TR-FRET Thyroid Receptor alpha Coactivator Assay kit (ThermoFisher) and LanthaScreen™ TR-FRET Thyroid Receptor beta Coactivator Assay kit (ThermoFisher) were used for agonist compound screening. Compounds in DMSO were diluted using ECHO Liquid Handler (Labcyte Inc.) into 384 plates in 10-point 3-fold series in duplicate (5 micro M final top concentration). Buffer C (ThermoFisher) was added to each well before the 4× mixture of fluorescein-SCR2-2 coactivator (200 nM final concentration), Terbium-labeled anti-GST antibody (2 nM final concentration), and THR alpha-LBD (0.4 nM final concentration) or THR beta-LBD (1.0 nM final concentration) was added. After 2 hours incubation at room temperature in the dark, the TR-FRET signal was measured on an EnVision plate reader (PerkinElmer) with excitation at 340 nm and dual emission readout at 495 and 520 nm with the delay time of 100 micro second and the integration time of 200 micro second. The ratio of emission signal at 520 and at 495 was used to calculate EC50 using GraphPad Prism (GraphPad Software). […] Compounds' THR-beta selectivity values in Table 2 are derived from T3-selectivity normalized data.

Structures are written as SMILES. A value given as a limit tells only on which side of the number the result lay.

T2 sequence (P10827 163-410 isoform P10827-2 limits assumed, other chains not shown): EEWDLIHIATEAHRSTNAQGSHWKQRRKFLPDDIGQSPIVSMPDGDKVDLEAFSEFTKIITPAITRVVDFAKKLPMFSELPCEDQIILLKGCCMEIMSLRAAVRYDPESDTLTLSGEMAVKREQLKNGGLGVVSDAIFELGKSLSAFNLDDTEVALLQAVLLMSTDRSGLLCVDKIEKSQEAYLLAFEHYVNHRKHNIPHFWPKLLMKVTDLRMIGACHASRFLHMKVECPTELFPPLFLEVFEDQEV

In the case of `CCC(C)c1cc(Oc2c(Cl)cc(-c3nn(C)c(=O)[nH]c3=O)cc2Cl)n[nH]c1=O` (stereo not drawn) [Compound 32, 6-(4-((5-(sec-butyl)-6-oxo-1,6-dihydropyridazin-3-yl)oxy)-3,5-dichlorophenyl)-2-methyl-1,2,4-triazine-3,5(2H,4H)-dione], on THR beta-LBD, the THRβ-Selectivity was 20.9. For the same molecule, the values for the concentration for a half-maximal effect (EC50) at THR beta-LBD and at THR alpha-LBD were 231 nM and 1130 nM, respectively.

Turning to `CC(C)c1cc(Oc2c(Cl)cc(-c3n[nH]c(=O)[nH]c3=O)cc2Cl)nn(C)c1=O` [Compound 1, 6-(3,5-dichloro-4-((5-isopropyl-1-methyl-6-oxo-1,6-dihydropyridazin-3-yl)oxy)phenyl)-1,2,4-triazine-3,5(2H,4H)-dione], at THR beta-LBD, the THRβ-Selectivity came out at 17 and the EC50 (usually the concentration that produces a half-maximal response) was found to be 24.7 nM. The EC50 on THR alpha-LBD was found to be 79.2 nM.

Take `CC(C)c1cc(Cc2c(Cl)cc(-c3n[nH]c(=O)[nH]c3=O)cc2Cl)nn(C)c1=O` [Compound 17, 6-(3,5-dichloro-4-((5-isopropyl-1-methyl-6-oxo-1,6-dihydropyridazin-3-yl)methyl)phenyl)-1,2,4-triazine-3,5(2H,4H)-dione]: at THR beta-LBD, the THRβ-Selectivity was 11.1 and the EC50 stood at 34.6 nM. The EC50 on THR alpha-LBD is 99.6 nM.

As to `CCC(O)c1cc(Oc2c(Cl)cc(-c3nn(C)c(=O)[nH]c3=O)cc2Cl)n[nH]c1=O` (stereo not drawn) [Compound 30, 6-(3,5-dichloro-4-((5-(1-hydroxypropyl)-6-oxo-1,6-dihydropyridazin-3-yl)oxy)phenyl)-2-methyl-1,2,4-triazine-3,5(2H,4H)-dione], on THR beta-LBD, the THRβ-Selectivity is 24.7 and the EC50 was determined as 214 nM. For the same molecule, the concentration giving a half-maximal response (EC50) on THR alpha-LBD was 1310 nM.

Consider `CC(C)c1cc(Oc2c(Cl)cc(-c3n[nH]c(=O)[nH]c3=O)c(F)c2Cl)nn(C)c1=O` [Compound 25, 6-(3,5-dichloro-2-fluoro-4-((5-isopropyl-1-methyl-6-oxo-1,6-dihydropyridazin-3-yl)oxy)phenyl)-1,2,4-triazine-3,5(2H,4H)-dione], for which, on THR beta-LBD, the THRβ-Selectivity was 4.4. The EC50 worked out at 22.2 nM on THR beta-LBD and 25 nM on THR alpha-LBD.

Regarding `CCc1cc(Oc2c(Cl)cc(-c3nn(C)c(=O)[nH]c3=O)cc2Cl)n[nH]c1=O` [Compound 28, 6-(3,5-dichloro-4-((5-ethyl-6-oxo-1,6-dihydropyridazin-3-yl)oxy)phenyl)-2-methyl-1,2,4-triazine-3,5(2H,4H)-dione], on THR beta-LBD, the THRβ-Selectivity was 19.2 and the EC50 is 670 nM. Besides, the half-maximal effective concentration (EC50) at THR alpha-LBD amounted to 3440 nM.

On to `CC(C)c1cc(Oc2c(Cl)cc(-c3nn(CC(F)F)c(=O)[nH]c3=O)cc2Cl)n[nH]c1=O` [Compound 23, 6-(3,5-dichloro-4-((5-isopropyl-6-oxo-1,6-dihydropyridazin-3-yl)oxy)phenyl)-2-(2,2-difluoroethyl)-1,2,4-triazine-3,5(2H,4H)-dione], for which, on THR beta-LBD, the THRβ-Selectivity turned out to be 9.2 and the EC50 was 1380 nM. In addition, at THR alpha-LBD, the EC50 stood at 3230 nM.

On to `CC(C)c1cc(Oc2c(Cl)cc(-c3nn(C)c(=O)[nH]c3=O)cc2Cl)n[nH]c1=O` [Compound 3, 6-(3,5-dichloro-4-((5-isopropyl-6-oxo-1,6-dihydropyridazin-3-yl)oxy)phenyl)-2-methyl-1,2,4-triazine-3,5(2H,4H)-dione], for which, on THR beta-LBD, the THRβ-Selectivity was found to be 69.8 and the EC50 worked out at 114 nM. Besides, on THR alpha-LBD, the concentration giving a half-maximal response (EC50) was determined as 1230 nM.

As for `CC(C)c1cc(Cc2c(Cl)cc(-c3nn(C)c(=O)[nH]c3=O)cc2Cl)n[nH]c1=O` [Compound 16, 6-(3,5-dichloro-4-((5-isopropyl-6-oxo-1,6-dihydropyridazin-3-yl)methyl)phenyl)-2-methyl-1,2,4-triazine-3,5(2H,4H)-dione], at THR beta-LBD, the THRβ-Selectivity is on record as 28.3 and the EC50 came out at 163 nM. Besides, at THR alpha-LBD, the EC50 is 1210 nM.

Consider `CC(C)c1cc(Oc2c(Cl)cc(-c3nn(C(C)C)c(=O)[nH]c3=O)cc2Cl)n[nH]c1=O` [Compound 4, 6-(3,5-dichloro-4-((5-isopropyl-6-oxo-1,6-dihydropyridazin-3-yl)oxy)phenyl)-2-isopropyl-1,2,4-triazine-3,5(2H,4H)-dione], for which, at THR beta-LBD, the THRβ-Selectivity is on record as more than 3.0 and the concentration for a half-maximal effect (EC50) is more than 5000 nM. For the same molecule, on THR alpha-LBD, the EC50 was more than 5000 nM.

Consider `CCOC(=O)Cn1nc(-c2cc(Cl)c(Oc3cc(C(C)C)c(=O)[nH]n3)c(Cl)c2)c(=O)[nH]c1=O` [Compound 20, ethyl 2-(6-(3,5-dichloro-4-((5-isopropyl-6-oxo-1,6-dihydropyridazin-3-yl)oxy)phenyl)-3,5-dioxo-4,5-dihydro-1,2,4-triazin-2(3H)-yl)acetate], for which, on THR beta-LBD, the THRβ-Selectivity worked out at 2.7 and the EC50 turned out to be 1930 nM. Further, the EC50 at THR alpha-LBD was determined as 1330 nM.

Take `CCC(CC)c1cc(Oc2c(Cl)cc(-c3nn(C)c(=O)[nH]c3=O)cc2Cl)n[nH]c1=O` [Compound 27, 6-(3,5-dichloro-4-((6-oxo-5-(pentan-3-yl)-1,6-dihydropyridazin-3-yl)oxy)phenyl)-2-methyl-1,2,4-triazine-3,5(2H,4H)-dione]: on THR beta-LBD, the THRβ-Selectivity is 33.9 and the EC50 was found to be 213 nM. For the same molecule, at THR alpha-LBD, the EC50 was 1750 nM.

(Values after patent US11203587B2, “Thyroid hormone receptor beta agonist compounds” (Terns, Inc., priority 2018, dated 2021).)
